The values below come from US8377900B2 (National Research Council of Canada, priority 2003, dated 2013).

For data set [1], the system named is S92G-mutated chimeric λR-GyrB transactivator. The data set is classed as cell-based, Human. The source says:
FIG. 5A. […] Results represent two independent experiments performed in triplicate.
Results shown are the means for triplicate determinations and representative of 3 experiments.

The conditions of data set [2]: cited from earlier work.
For a further data set, the system named is 293A cells. The data set is classed as cell-based, Human. Particulars: 25 μM, cell growth rate and CMV-GFP expression. As to the method: At a concentration of 5 μM novobiocin, however, over 98% of the coumermycin-induced luciferase expression was suppressed (FIG. 5A).
The subject of the next data set is K562-Bax 65 cells. Put plainly: Western blot of Bax expression and cytosolic cytochrome C in clone K562-Bax 65. Particulars: 5 nM coumermycin, 36 hr. In kind it is cell-based, Human. The source says: (§1) It has been reported that high-level expression of Bax (Bcl2-associated X protein) elicits apoptosis in a variety of human cancer cells (17). In malignant hematopoietic cells, including k562, Bax overexpression leads to apoptosis of the transfected cells through cytochrome C release (18). To evaluate the tightness of gene expression regulated by the chimeric transactivator, the apoptotic Bax gene was cloned into the transgene-expression cassette from the two-plasmid induction system previously described. […] Stable clones harboring the both plasmids were isolated and characterized following induction.
A general note: Immunoblotting shows a protein as a band on a membrane.

A further data set relates to K562-Bax cells. Kind of data set: Flow cytometric analysis of apoptosis (Annexin-V) in K562-Bax cells. Particulars: 5 nM coumermycin, 36 hr; 6.7% without treatment. In kind it is cell-based, Human.
Excerpt: as §1
(Flow cytometry measures light scatter and fluorescence of single cells or particles in a stream.)

For data set [3], the system named is S92G-mutated chimeric λR-GyrB transactivator. Put plainly: Coumermycin-dependent luciferase activity in stable 293A clones (pCUR, S92G transactivator). The data set is classed as cell-based, Human. As to the method:
FIG. 4B. […] Results represent two independent experiments performed in triplicate.
Alternatively, the cells were transfected with PvuI linearized pCUR. Two days following transfection, the cells were replaced into 100 mm dishes, and selected with appropriate antibiotics for 2 weeks. Single clone was selected for further assay. […] After 40 hrs induction, cells were lysed in 100 μl lysis buffer (Promega) for 20 min. Luc activity was determined using 20 μl of total cell lysate using the Dual-Luciferase Reporter Assay System (Promega). The reporter firefly luciferase activities were measured and normalized by the transfection efficiencies estimated by the activities of Renilla luciferase constitutively expressed from cotransfected pRL-TK. For inducible expression of the Bax gene, wild-type K562 cells were transfected using electroporation with 5 μg DNA of the linearized pBax and pGyrB. Cell lines were selected with hygromycin and positive clones were screened in the induced and non-induced states using anti-Bax antibody visualized by Western blot.
Cells were stably transfected with pCUR containing the Luc gene. […] Values are means of three independent luciferase determinations from three independently cell cultures.
The kinetic characteristics of this inducible system were further examined in stable cell lines.

For data set [4], the target named is T1, chimeric transactivator λR-GyrB-NFκB (UniProt P03034+P0AES6).
T1 construct: the GyrB domain (codons 2-220 of bacterial DNA gyrase); expressed in transfected cells; host or cells: human embryonic kidney 293A cells, transient transfection with pGyrB plus reporter plasmid, or with pCUR
Put plainly: Coumermycin-induced reporter (Luc/GFP) expression, transient transfection of 293A cells with wild type transactivator. The data set is classed as cell-based, Human. Particulars: 5 nM, 40 hr. As to the method: FIG. 2A. Either two plasmids pGFP and pGyrB (double plasmids, each 0.5 μg), or one plasmid pCUR (1.0 μg) containing the GFP gene (single plasmid), were transiently transfected into 293A cells.
FIG. 2B. Either two plasmids pLuc and pGyrB (DP, each 0.2 μg), or one plasmid pCUR (0.4 μg) containing the Luc gene (SP), were transiently transfected into 293A cells, respectively. […] The results shown are the means for triplicate determinations and representative of 3 experiments. The transfection efficiencies were normalized by co-transfection of pRL-TK vector constitutively producing Renilla luciferase.
Exponentially growing 293A cells were seeded at 8×10^5 in 60 mm dishes the day prior to transfection and co-transfected with 5 μg of XmnI linearized pLuc and 0.2 μg of pcDNA3.1 hygromycin using the SuperFect kit (Qiagen). Alternatively, the cells were transfected with PvuI linearized pCUR. Two days following transfection, the cells were replaced into 100 mm dishes, and selected with appropriate antibiotics for 2 weeks. Single clone was selected for further assay. […] Luc activity was determined using 20 μl of total cell lysate using the Dual-Luciferase Reporter Assay System (Promega). The reporter firefly luciferase activities were measured and normalized by the transfection efficiencies estimated by the activities of Renilla luciferase constitutively expressed from cotransfected pRL-TK. […]

Turning to `CO[C@@H]1[C@@H](OC(N)=O)[C@@H](O)[C@H](Oc2ccc3c(O)c(NC(=O)c4ccc(O)c(CC=C(C)C)c4)c(=O)oc3c2C)OC1(C)C` [novobiocin], in data set [1] (2.5 μM novobiocin added after 11 hr induction with 5 nM coumermycin), the “extent of switch-off of coumermycin-induced luciferase expression” value is recorded as “nearly completely switched off”. Further, the “suppression of coumermycin-induced luciferase expression” value in data set [1] (5 μM novobiocin with 5 nM coumermycin, 40 hr) was “over 98%”. Besides, the in vivo half-life in data set [2] is 6 h. In addition, the serum half-life in data set [2] (serum, in vivo) is 6 h. The cellular toxicity result in the data set on 293A cells is recorded as “do not exert any detectable cellular toxicity”.
Turning to coumermycin, the “Bax expression (Western blot)” value in the data set with K562-Bax 65 cells is “greatly induced”. For the same compound, the “cytochrome c release from mitochondria (Western blot)” value with K562-Bax 65 cells was “released in substantial amounts”. For the same compound, the “fraction of apoptotic cells” value in the data set with K562-Bax cells amounted to 45.5%. Further, the “induction time at which appreciable luciferase activity was detected” value in data set [3] (5 nM coumermycin, clone S92G-5) is 5 h. The “induction time for maximal inducibility” value in data set [3] (5 nM coumermycin, clone S92G-5) worked out at 24 h. The “higher doses causing reduced induction of gene expression” value in data set [3] (FIG. 4A) is > 0.5 µM. In addition, the “concentration at which inducibility was decreased” value in data set [3] (clone S92G-5, 40 hr) is recorded as 50 nM. In addition, the “concentration for maximal induction” value in data set [3] (clone S92G-5, 40 hr) fell in the range of 2.5 to 5 nM. For the same compound, in data set [3] (clone S92G-5, 40 hr), the “lowest concentration giving apparent induction of luciferase expression” value is “approximately 0.5 ng/ml”. The “lowest concentration giving appreciable/apparent induction of gene expression” value in data set [3] (clone S92G-5, 40 hr, luciferase) is 0.5 nM. The “Luciferase Activity With Coum” value is recorded as 47,460 ± 447 Arbitrary Light Units/μg protein in data set [3] (stable clone 5, coumermycin 5 nM); 52,408 ± 2,254 Arbitrary Light Units/μg protein in data set [3] (stable clone 8, coumermycin 5 nM); 1,591 ± 100 Arbitrary Light Units/μg protein in data set [3] (stable clone 10, coumermycin 5 nM); 7,446 ± 36 Arbitrary Light Units/μg protein in data set [3] (stable clone 18, coumermycin 5 nM); 8,237 ± 204 Arbitrary Light Units/μg protein in data set [3] (stable clone 23, coumermycin 5 nM); 12,292 ± 550 Arbitrary Light Units/μg protein in data set [3] (stable clone 28, coumermycin 5 nM). For the same compound, the “Luciferase Activity With Coum” value in data set [3] (stable clone 34, coumermycin 5 nM) is on record as 46,980 ± 1,300 Arbitrary Light Units/μg protein; in data set [3] (stable clone 44, coumermycin 5 nM), 30,151 ± 2020 Arbitrary Light Units/μg protein; in data set [3] (stable clone 45, coumermycin 5 nM), 1,909 ± 24 Arbitrary Light Units/μg protein; in data set [3] (stable clone 47, coumermycin 5 nM), 8,528 ± 43 Arbitrary Light Units/μg protein. In addition, the Activation factor in data set [3] (stable clone 5, with vs without coumermycin 5 nM) is on record as 5.1 × 10^3; in data set [3] (stable clone 8, with vs without coumermycin 5 nM), 1.5 × 10^3; in data set [3] (stable clone 10, with vs without coumermycin 5 nM), 3.2 × 10^3; in data set [3] (stable clone 18, with vs without coumermycin 5 nM), 5.8 × 10^3; in data set [3] (stable clone 23, with vs without coumermycin 5 nM) it was “over 10,000”; in data set [3] (stable clone 23, with vs without coumermycin 5 nM, listed as Coumermycin) it was 1.4 × 10^4. For the same compound, the Activation factor in data set [3] (stable clone 28, with vs without coumermycin 5 nM) is 5.1 × 10^3; in data set [3] (stable clone 34, with vs without coumermycin 5 nM), 5.8 × 10^3; in data set [3] (stable clone 44, with vs without coumermycin 5 nM), “over 10,000”; in data set [3] (stable clone 44, with vs without coumermycin 5 nM, listed as Coumermycin), 1.3 × 10^4; in data set [3] (stable clone 45, with vs without coumermycin 5 nM) it was 1.6 × 10^3; in data set [3] (stable clone 47, with vs without coumermycin 5 nM), 2.1 × 10^3. Moreover, the GFP expression entry in data set [4] (both plasmid systems) is reported as “greatly induced”. Besides, the “induction of luciferase activity” value in data set [4] (wild type λR, double- and single-plasmid cassettes) is on record as “around 50 fold”.
